For test [1], the target named is T1, thermolysin (TLN) (Bacillus thermoproteolyticus, UniProt P00800).
T1 construct: purchased Calbiochem (San Diego, CA, USA)
Nature of the test: MALDI-TOF MS analysis of ES005 cleavage. The settings on record: One μM galardin, 100 nM TLN. The format is biochemical. The procedure:
MALDI-TOF MS spectra were recorded for samples containing different enzyme and substrate concentrations at various time points using an Autoflex Speed instrument (Bruker Daltonik GmbH, Leipzig, Germany) equipped with a 355-nm nitrogen laser for desorption and ionization. The ionization matrix, HCCA, was dissolved to 10 mg/mL in a standard solvent (50% MeCN, 47.5% MQ-water, and 2.5% TFA) by vigorous vortexing. Prior to the MALDI run, a main buffer (0.1 M Hepes, pH 7.5, 10 mM CaCl2) was used to dilute TLN to stock concentrations of 1000, 100 and 50 nM, ES005–500 µM, and galardin to 10 µM. All stocks solutions were kept on ice. For the 0 min incubation, 1 µL TLN and 1 µL galardin were preincubated at 37°C in 8 µL of the main buffer for 10 min before adding 1 µL of ES005. For all other time points, 1 µL of ES005 was added to tubes containing 8 µL buffer and 1 µL of TLN at different concentrations, followed by incubation at 37°C. At each timepoint (0, 1, 3, 5, 10, 20, 30, 60, 120 min), 1 µL of galardin was added to stop enzyme activity. After the final incubation, 1 µL aliquots from each timepoint were mixed with an equal volume of HCCA and spotted onto a MALDI plate. […] The resulting mass spectra were analysed using flexAnalysis software (v3.3, Bruker).

The target in test [2] is T2, human MT1-MMP/MMP-14 (catalytic domain) (Homo sapiens, UniProt P50281).
T2 construct: human MT1-MMP/MMP-14 (catalytic domain); purchased Calbiochem (San Diego, CA, USA)
Briefly: Enzyme inhibition kinetics, fluorogenic substrate ES001. It counts as biochemical. Conditions: for inhibitory effect on enzymatic activity: in words; for Ki: read-out: Ki ± s.d. (converted). How it is done:
(§1) Determination of reaction velocities. The substrate ES001 was used for APMA activated MMP-9 (MMP-9(A)), Mag-Trypsin activated MMP-9 (MMP-9(MT)) and MMP-14, while the substrate ES005 was used for ALN, PLN and TLN. The reaction velocities/initial rates (v) were determined at 37°C, at an excitation wavelength of 320 nm and an emission wavelength of 405 nm with a slit width of 10 nm using either a Perkin Elmer LS 50 Luminescence spectrometer and the FL WinLab Software Package (Perkin Elmer) or a Clario Star micro plate reader (CLARIOstar® BMG LABTECH).
(§2) The phosphinic compounds were dissolved in 100% DMSO to a final concentration of 10 mM. In all assays, a fixed substrate concentration of 4.0 µM was used in a total volume of 100 µL 0.1 M Hepes pH 7.5, 10 mM CaCl2, 0.005% Brij-35 and 1.0% DMSO. Fixed enzyme concentrations were as follows; 0.05 nM MMP-9(A), 0.05 nM MMP-9(MT), 1.0 nM MMP-14, 1.4 nM ALN, 0.5 nM PLN and 0.21 nM TLN. Time dependent inhibitory experiments, with and without 100 μM of phosphinic compounds, were performed as follows: Compounds were either pre-incubated with proteases for 15 and 30 minutes at room temperature before initiating the enzymatic reaction by adding the substrate, or not pre-incubated, meaning the reaction was initiated by adding the protease to the mixture of substrate and compound. Control tests without the compound present were performed under the same conditions. Reactions were monitored for 30 minutes at 37°C.
(§3) Determination of IC50 and Ki values. […] A fixed substrate concentration and the same enzyme and buffer conditions as described above were used. Enzymes, with or without inhibitors, were either pre-incubated for 30 minutes at room temperature or not pre-incubated, and initial rate assays were performed as described above. Assays were performed using a Clario Star microplate reader. The IC50 values with corresponding s.d. were calculated with GraphPad Prism 5 using equation 1 or 2, depending on the concentration range of the phosphinic compounds.
(§4) Equation 3 describe the relationship between IC50 and Ki values for substrate competitive inhibitors, considering the fixed substrate concentration and the enzyme’s Km value for the substrate: […]

Test [3] addresses T3, APMA activated MMP-9 (MMP-9(A)) (Homo sapiens, UniProt P14780).
T3 construct: made in house; host or cells: Sf9 and High Five insect cells
Described as above. The format is biochemical. The settings on record: for inhibitory effect on enzymatic activity: 100 μM compound, in words; for Ki: read-out: Ki ± s.d. (converted). How it is done:
(§5) The expression of recombinant full length proMMP-9 (rpMMP-9) in Sf9 and High Five insect cells and the purification were performed as previously described. The amount of proMMP-9 was estimated spectrophotometrically at 280 nm using ε280nm = […] [46] for the full length enzyme. Activation of the recombinant proMMP-9 was performed with APMA (auto-activation) and Mag-Trypsin as previously described, while the amount of active MMP-9 was determined by active site titration using galardin, also described previously.
as §1, §2, §3, §4

Test [4] addresses T4, Mag-Trypsin activated MMP-9 (MMP-9(MT)) (Homo sapiens, UniProt P14780).
T4 construct: made in house; host or cells: Sf9 and High Five insect cells
The test is described as above. It counts as biochemical. The settings on record: for inhibitory effect on enzymatic activity: 100 μM compound, in words; for Ki: read-out: Ki ± s.d. (converted). The procedure: as §5, §1, §2, §3, §4

Test [5] concerns the target T5, aureolysin (ALN) (Staphylococcus aureus, UniProt P81177).
T5 construct: purchased BioCentrum Ltd (Kraków, Poland)
Briefly: Enzyme inhibition kinetics, fluorogenic substrate ES005. It counts as biochemical. The settings on record: for inhibitory effect on enzymatic activity: 100 μM compound, in words. How it is done:
as §1, §2, §3, §4

Test [6] deals with T6, pseudolysin (PLN, LasB) (Pseudomonas aeruginosa, UniProt P14756).
T6 construct: purchased Calbiochem (San Diego, CA, USA)
T6 sequence (P14756 198-498): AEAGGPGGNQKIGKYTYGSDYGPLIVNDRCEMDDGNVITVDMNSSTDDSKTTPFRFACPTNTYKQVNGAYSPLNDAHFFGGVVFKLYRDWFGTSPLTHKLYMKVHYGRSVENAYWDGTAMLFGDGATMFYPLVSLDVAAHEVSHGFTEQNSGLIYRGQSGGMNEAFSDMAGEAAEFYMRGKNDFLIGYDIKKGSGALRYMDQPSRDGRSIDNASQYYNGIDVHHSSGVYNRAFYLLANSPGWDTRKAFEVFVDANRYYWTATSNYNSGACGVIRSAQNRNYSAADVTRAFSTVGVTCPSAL
The description is as above. The format is biochemical. Conditions: for inhibitory effect on enzymatic activity: 100 μM compound, in words. How it is done: as §1, §2, §3, §4

Test [7] concerns the target T1, thermolysin (TLN). Described as above. It counts as biochemical. Conditions: for inhibitory effect on enzymatic activity: 100 μM compound, in words; for Ki: read-out: Ki ± s.d. The procedure:
as §1, §2, §3, §4

Test [8] has as its target T7, MMP-9(A) (Homo sapiens, UniProt P14780).
T7 construct: made in house; host or cells: Sf9 and High Five insect cells
The arrangement: method as in PMID 33757387. The settings on record: 1% DMSO; cited from earlier work.

Test [9] concerns the target T8, MMP-14 (Homo sapiens, UniProt P50281).
T8 construct: human MT1-MMP/MMP-14 (catalytic domain); purchased Calbiochem (San Diego, CA, USA)
Also on record: method as in PMID 33757387. Conditions: 1% DMSO; cited from earlier work.

Where two headings read alike, the source gives them in different places. Where a SMILES comes first, the peptide text is derived from it. [ ]: non-standard residue; d: D form. The star is where a group is joined. Dnp = O=[N+]([O-])c1ccc(*)c([N+](=O)[O-])c1; Mca = COc1ccc2c(CC(=O)*)cc(=O)oc2c1; Dap = NC[C@H](N)C(=O)O

T1 sequence (P00800 233-548): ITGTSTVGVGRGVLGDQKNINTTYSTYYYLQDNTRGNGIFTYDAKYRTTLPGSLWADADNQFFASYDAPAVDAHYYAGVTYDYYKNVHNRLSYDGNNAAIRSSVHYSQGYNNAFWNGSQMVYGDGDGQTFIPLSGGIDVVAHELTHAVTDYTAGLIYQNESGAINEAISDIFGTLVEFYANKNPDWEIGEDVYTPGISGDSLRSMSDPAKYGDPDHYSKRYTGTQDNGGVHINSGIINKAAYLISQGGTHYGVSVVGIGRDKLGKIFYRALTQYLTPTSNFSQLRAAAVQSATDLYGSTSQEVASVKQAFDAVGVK
T5 sequence (P81177 209-509): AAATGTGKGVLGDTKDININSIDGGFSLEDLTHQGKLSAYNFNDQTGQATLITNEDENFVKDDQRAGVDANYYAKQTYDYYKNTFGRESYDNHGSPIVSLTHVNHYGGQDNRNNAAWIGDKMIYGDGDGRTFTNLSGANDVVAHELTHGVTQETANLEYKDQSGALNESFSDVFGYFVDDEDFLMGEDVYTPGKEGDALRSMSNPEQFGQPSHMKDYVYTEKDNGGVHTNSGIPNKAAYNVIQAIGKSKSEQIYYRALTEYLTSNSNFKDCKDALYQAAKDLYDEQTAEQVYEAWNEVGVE
T3 sequence (P14780 107-707 limits assumed): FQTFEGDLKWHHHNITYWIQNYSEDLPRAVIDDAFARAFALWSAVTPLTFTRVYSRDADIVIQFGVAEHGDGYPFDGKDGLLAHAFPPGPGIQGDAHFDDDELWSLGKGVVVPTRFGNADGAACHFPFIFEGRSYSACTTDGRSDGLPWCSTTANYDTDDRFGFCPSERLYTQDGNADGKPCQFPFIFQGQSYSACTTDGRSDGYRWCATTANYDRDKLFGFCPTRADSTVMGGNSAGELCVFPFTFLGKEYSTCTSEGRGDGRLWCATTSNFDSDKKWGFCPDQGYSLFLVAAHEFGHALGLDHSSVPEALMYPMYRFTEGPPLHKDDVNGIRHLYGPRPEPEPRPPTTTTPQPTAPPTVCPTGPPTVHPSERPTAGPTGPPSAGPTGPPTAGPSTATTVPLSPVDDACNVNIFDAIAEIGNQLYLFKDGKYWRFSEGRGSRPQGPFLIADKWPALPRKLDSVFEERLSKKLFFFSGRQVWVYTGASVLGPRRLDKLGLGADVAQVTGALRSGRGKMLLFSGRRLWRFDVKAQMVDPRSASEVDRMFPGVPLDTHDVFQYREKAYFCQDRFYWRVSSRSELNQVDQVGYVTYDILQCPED
T4 sequence (P14780 107-707 limits assumed): as above
T7 sequence (P14780 107-707 limits assumed): as above

For `CNC(=O)[C@H](Cc1c[nH]c2ccccc12)NC(=O)[C@@H](CC(=O)NO)CC(C)C` [galardin], in test [1], the “inhibition of TLN (stopping of substrate cleavage)” value is given as “not sufficient to completely inhibit”.
The term Ki denotes the equilibrium dissociation constant of an inhibitor or competing ligand from its target. Regarding `CCOC(=O)C(CO)CP(=O)(O)C(Cc1ccccc1)NC(=O)OCc1ccccc1` (stereo not shown) [H-5], the “inhibitory effect on enzymatic activity” value in test [2] (MMP-14, 100 μM compound) is listed as “weak or no inhibition”; in test [3] (MMP-9(A)), “weak or no inhibition”; in test [4] (MMP-9(MT)), “weak or no inhibition”; in [5] (ALN), “weak or no inhibition”; in test [6] (PLN) it was “weak or no inhibition”; in [7] (TLN) it was “weak or no inhibition”. Moreover, the Ki in test [2], in test [3], in test [4], in test [5], in test [6] and in [7] was at least 100 µM each time.
In the case of `CC(=O)NC(CC(C)C)C(=O)CC(C)P(=O)(O)CC(Cc1ccccc1)C(=O)O` (stereo not shown) [H-3], the “inhibitory effect on enzymatic activity” value in test [2] (MMP-14, 100 μM compound) is listed as “weak or no inhibition”; in test [3] (MMP-9(A)), “weak or no inhibition”; in [4] (MMP-9(MT)), “weak or no inhibition”; in [5] (ALN) it was “weak or no inhibition”; in test [6] (PLN), “weak or no inhibition”; in test [7] (TLN), “weak or no inhibition”. For the same compound, the “pre-incubation time after which inhibition stabilizes (slow binding)” value in test [2] (MMP-14, 100 μM compound, pre-incubation at room temperature) came out at 15 min. For the same compound, the Ki is at least 100 µM in [2] (MMP-14, substrate ES001 4.0 µM, 0.1 M Hepes pH 7.5, 37°C, 1.0% DMSO, Ki from IC50 (Eqn. 3)); at least 100 µM in [3] (MMP-9(A), substrate ES001 4.0 µM, 0.1 M Hepes pH 7.5, 37°C, 1.0% DMSO, Ki from IC50 (Eqn. 3)); at least 100 µM in test [4] (MMP-9(MT), substrate ES001 4.0 µM, 0.1 M Hepes pH 7.5, 37°C, 1.0% DMSO, Ki from IC50 (Eqn. 3)); at least 100 µM in test [5] (read-out: Ki ± s.d., ALN, substrate ES005 4.0 µM, 0.1 M Hepes pH 7.5, 37°C, 1.0% DMSO, Ki from IC50 (Eqn. 3)); at least 100 µM in test [6] (read-out: Ki ± s.d., PLN, substrate ES005 4.0 µM, 0.1 M Hepes pH 7.5, 37°C, 1.0% DMSO, Ki from IC50 (Eqn. 3)); at least 100 µM in [7] (TLN, substrate ES005 4.0 µM, 0.1 M Hepes pH 7.5, 37°C, 1.0% DMSO, Ki from IC50 (Eqn. 3)).
For the compound `CC(NC(=O)OCc1ccccc1)P(=O)(O)CC(Cc1ccccc1)C(=O)O` (stereo not shown) [H-4], the “inhibitory effect on enzymatic activity” value is listed as “weak or no inhibition” in [2] (MMP-14, 100 μM compound); “weak or no inhibition” in test [3] (MMP-9(A)); “weak or no inhibition” in [4] (MMP-9(MT)); “weak or no inhibition” in [5] (ALN); “weak or no inhibition” in test [6] (PLN); “weak or no inhibition” in test [7] (TLN). Besides, the Ki in [2], in test [3], in [4], in test [5], in [6] and in test [7] was at least 100 µM throughout.
As a reminder, the Km is the substrate concentration at which the rate is half of its maximum. Turning to `COc1ccc2c(CC(=O)N3CCC[C@H]3C(=O)N[C@@H](CC(C)C)C(=O)NCC(=O)N[C@@H](CC(C)C)C(=O)N[C@@H](CNc3ccc([N+](=O)[O-])cc3[N+](=O)[O-])C(=O)N[C@@H](C)C(=O)N[C@@H](CCCNC(=N)N)C(N)=O)cc(=O)oc2c1` [ES001, Mca-Pro-Leu-Gly-Leu-Dpa-Ala-Arg-NH2] (Mca-PLGL[Dap](Dnp)AR-NH2), the Km in test [8] is 4 ± 1 µM; in test [9], 4.9 ± 0.4 µM.

The values are drawn from PMC12316308, “Interactions of substrates and phosphinyl containing inhibitors with bacterial and human zinc proteases” (PLOS One, 2025).
